The nature of this data set: Toxicity by 3-week DRF oral administration. The data set is classed as in vivo, ICR mice. The conditions noted are these: once a day for 3 weeks, 500 to 2000 mg/kg. On the procedure:
LDD3959 was administered once a day for 3 weeks at each concentration (in the range of 500 to 2000 mg/kg), adverse events during the course of administration were checked, and the subjects were sacrificed the next day after the end of administration to perform weight measurement, hematological analysis, and biochemical analysis for each organ. In addition, the same experiment was performed on five ICR female mice and five ICR male mice to identify gender-dependent differences.

With `O=C1C(Cl)=C(Cl)C(=O)c2[nH]c(-c3ccc(Br)c(F)c3)nc21` [LDD3959, 2-(4-bromo-3-fluorophenyl)-5,6-dichloro-1H-benzo[d]imidazole-4,7-dione], the adverse events result is reported as “no specific adverse events occurred”; the “hematological and biochemical tests” value is “no probable adverse events”. Under “female and male ICR mice”, the deaths result is reported as “no deaths of the subjects occurred”.

The record behind these values is patent US20240300902A1, “NOVEL TRANSGLUTAMINASE 2 INHIBITOR AND USE THEREOF” (MD BIOLAB CO., LTD., priority 2021, published 2024).
